Source: ChEMBL document CHEMBL1144565, “Anti-breast cancer activity of LFM-A13, a potent inhibitor of Polo-like kinase (PLK)” (Bioorg Med Chem, 2007)
Calls of active or inactive are those of the source. The calls are words filed in the database; no cut-off is given here.

Tests used:
[1] = target: Mitogen-activated protein kinase 1 (Homo sapiens, UniProt P28482); test: Inhibition of MAPK1
Rattus norvegicus [2] = test: Toxicity in Lewis rat assessed as WBC counts at 80 mg/kg, iv after 7 days; type: organism-based; design: dose 80 mg/kg, route intravenous; conditions: in vivo, 168 h
Rattus norvegicus [3] = test: Toxicity in Lewis rat assessed as absolute neutrophil counts at 80 mg/kg, iv after 7 days; type: organism-based; design: dose 80 mg/kg, route intravenous; conditions: in vivo, 168 h
[4] = target: Mast/stem cell growth factor receptor Kit (Homo sapiens, UniProt P10721); test: Inhibition of C-Kit kinase
Sequence of Mast/stem cell growth factor receptor Kit (P10721 whole entry): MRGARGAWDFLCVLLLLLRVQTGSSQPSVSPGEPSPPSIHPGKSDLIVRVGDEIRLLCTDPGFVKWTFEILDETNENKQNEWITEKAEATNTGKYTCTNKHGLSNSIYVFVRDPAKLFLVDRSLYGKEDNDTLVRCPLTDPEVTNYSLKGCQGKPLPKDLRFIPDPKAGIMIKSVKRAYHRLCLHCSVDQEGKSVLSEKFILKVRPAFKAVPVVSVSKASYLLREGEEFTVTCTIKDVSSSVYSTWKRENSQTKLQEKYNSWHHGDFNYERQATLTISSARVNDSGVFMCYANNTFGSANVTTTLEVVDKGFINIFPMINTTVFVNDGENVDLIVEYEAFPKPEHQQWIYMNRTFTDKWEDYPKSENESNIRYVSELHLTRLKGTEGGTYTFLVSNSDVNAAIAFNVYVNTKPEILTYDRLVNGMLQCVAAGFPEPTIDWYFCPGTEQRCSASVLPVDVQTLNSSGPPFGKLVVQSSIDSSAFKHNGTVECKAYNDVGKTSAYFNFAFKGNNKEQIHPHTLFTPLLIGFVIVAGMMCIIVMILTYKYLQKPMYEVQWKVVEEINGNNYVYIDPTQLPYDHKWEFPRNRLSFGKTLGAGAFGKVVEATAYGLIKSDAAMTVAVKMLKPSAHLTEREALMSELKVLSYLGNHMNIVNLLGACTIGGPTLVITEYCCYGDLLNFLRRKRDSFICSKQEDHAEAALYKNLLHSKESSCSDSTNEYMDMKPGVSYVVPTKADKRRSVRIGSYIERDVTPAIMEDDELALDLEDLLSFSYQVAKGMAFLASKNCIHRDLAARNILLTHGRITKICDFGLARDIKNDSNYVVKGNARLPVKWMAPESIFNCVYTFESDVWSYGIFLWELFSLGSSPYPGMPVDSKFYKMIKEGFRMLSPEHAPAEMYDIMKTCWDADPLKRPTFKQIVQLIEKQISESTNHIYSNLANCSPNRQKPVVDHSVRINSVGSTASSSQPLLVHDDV

Mus musculus [5] = test: Subacute toxicity in CD1 mouse assessed as WBC counts at 20 mg/kg, ip after 30 days; type: organism-based; design: dose 20 mg/kg, route intraperitoneal; conditions: in vivo, 720 h
[6] = target: Tyrosine-protein kinase JAK2 (Homo sapiens, UniProt O60674); test: Inhibition of JAK2
Sequence of Tyrosine-protein kinase JAK2 (O60674 whole entry): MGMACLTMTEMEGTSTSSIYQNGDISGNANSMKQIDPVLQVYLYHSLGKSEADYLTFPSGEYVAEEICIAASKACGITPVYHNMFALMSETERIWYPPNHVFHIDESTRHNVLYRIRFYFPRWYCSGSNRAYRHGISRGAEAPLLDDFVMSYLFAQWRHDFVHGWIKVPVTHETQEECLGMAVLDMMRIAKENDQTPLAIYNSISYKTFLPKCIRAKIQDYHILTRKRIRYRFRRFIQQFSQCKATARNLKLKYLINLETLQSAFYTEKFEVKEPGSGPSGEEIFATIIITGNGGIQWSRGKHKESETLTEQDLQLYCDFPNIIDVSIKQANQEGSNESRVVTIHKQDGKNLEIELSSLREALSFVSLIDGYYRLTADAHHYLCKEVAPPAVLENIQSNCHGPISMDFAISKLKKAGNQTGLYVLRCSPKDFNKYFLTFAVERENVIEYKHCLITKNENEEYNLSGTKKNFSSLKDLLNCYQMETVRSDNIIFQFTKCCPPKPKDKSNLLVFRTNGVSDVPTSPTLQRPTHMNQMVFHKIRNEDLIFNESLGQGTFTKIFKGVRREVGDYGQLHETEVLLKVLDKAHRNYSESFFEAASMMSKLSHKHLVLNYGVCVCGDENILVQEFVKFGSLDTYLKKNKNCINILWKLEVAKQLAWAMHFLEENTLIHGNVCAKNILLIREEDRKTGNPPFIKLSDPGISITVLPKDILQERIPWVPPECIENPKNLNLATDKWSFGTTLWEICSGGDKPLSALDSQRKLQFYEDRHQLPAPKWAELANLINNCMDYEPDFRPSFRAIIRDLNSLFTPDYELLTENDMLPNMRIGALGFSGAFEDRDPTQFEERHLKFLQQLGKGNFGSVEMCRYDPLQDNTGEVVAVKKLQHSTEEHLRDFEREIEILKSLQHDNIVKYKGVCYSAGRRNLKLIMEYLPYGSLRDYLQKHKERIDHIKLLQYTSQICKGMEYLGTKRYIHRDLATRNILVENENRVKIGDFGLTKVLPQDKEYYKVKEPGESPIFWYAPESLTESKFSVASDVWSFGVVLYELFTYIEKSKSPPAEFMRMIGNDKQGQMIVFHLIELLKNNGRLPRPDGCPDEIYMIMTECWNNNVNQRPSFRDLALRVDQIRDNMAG

Mus musculus [7] = test: Acute toxicity in CD1 mouse assessed as absolute neutrophil counts at 40 mg/kg, ip after 7 days; type: organism-based; design: dose 40 mg/kg, route intraperitoneal; conditions: in vivo, 168 h
Rattus norvegicus [8] = test: Effect on non-proliferating tissue in iv dosed Lewis rat assessed as toxic lesions in myocardium on day 7; type: ADME, organism-based; conditions: in vivo
[9] = target: Platelet-derived growth factor receptor (Homo sapiens, UniProt P09619+P16234); test: Inhibition of PDGFR; type: protein-complex assay
Mus musculus [10] = test: Acute toxicity in CD1 mouse assessed as absolute lymphocyte counts at 10 mg/kg, ip after 7 days; type: organism-based; design: dose 10 mg/kg, route intraperitoneal; conditions: in vivo, 168 h
Rattus norvegicus [11] = test: Toxicity in Lewis rat assessed as myeloid or lymphoid hyperplasia in bone marrow at 40 mg/kg, iV after 7 days; type: organism-based; design: dose 40 mg/kg, route intravenous; conditions: in vivo, 168 h
Mus musculus [12] = test: Effect on non-proliferating tissue in ip dosed CD1 mouse assessed as toxic lesions in kidney; type: ADME, organism-based; conditions: in vivo
[13] = target: T1, Serine/threonine-protein kinase PLK3 (Homo sapiens, UniProt Q9H4B4); test: Inhibition of human PLK3 in presence of 100 uM ATP
T1 sequence (Q9H4B4 whole entry): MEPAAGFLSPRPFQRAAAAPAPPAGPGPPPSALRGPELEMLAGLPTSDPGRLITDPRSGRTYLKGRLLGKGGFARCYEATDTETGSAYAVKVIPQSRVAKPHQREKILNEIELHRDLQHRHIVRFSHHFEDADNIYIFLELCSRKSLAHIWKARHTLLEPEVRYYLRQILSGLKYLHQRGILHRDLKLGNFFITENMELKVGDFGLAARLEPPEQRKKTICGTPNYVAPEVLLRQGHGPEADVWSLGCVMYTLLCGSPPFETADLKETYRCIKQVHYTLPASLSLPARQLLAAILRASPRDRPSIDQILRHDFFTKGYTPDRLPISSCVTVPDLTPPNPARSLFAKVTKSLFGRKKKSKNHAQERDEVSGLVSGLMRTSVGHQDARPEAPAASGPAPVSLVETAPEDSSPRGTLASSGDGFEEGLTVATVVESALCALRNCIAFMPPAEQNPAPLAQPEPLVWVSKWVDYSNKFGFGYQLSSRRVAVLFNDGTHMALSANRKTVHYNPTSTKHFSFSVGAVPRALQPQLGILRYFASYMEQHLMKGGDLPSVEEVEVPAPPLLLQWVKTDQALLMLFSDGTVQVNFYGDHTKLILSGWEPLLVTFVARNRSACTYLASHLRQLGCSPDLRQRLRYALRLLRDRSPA

Mus musculus [14] = test: Effect on non-proliferating tissue in ip dosed CD1 mouse assessed as toxic lesions in brain; type: ADME, organism-based; conditions: in vivo
Mus musculus [15] = test: Acute toxicity in CD1 mouse assessed as absolute neutrophil counts at 10 mg/kg, ip after 7 days; type: organism-based; design: dose 10 mg/kg, route intraperitoneal; conditions: in vivo, 168 h
[16] = target: T1, Serine/threonine-protein kinase PLK3; test: Inhibition of human PLK3 in presence of 50 uM ATP
Rattus norvegicus [17] = test: Toxicity in Lewis rat assessed as absolute lymphocyte counts at 20 mg/kg, iv after 7 days; type: organism-based; design: dose 20 mg/kg, route intravenous; conditions: in vivo, 168 h
PTK1 = test: Antiproliferative activity against prometaphase PTK1 cells assessed as complete arrest at 1 mM within 50 mins; type: functional, cell-based; conditions: Potorous tridactylus
Danio rerio [18] = organism: Danio rerio; test: Effect on cell division blockade in zebrafish two-cell stage embryo assessed as proliferation arrest at 16-cell stage at 500 uM after 30 to 35 mins; type: functional, organism-based
Mus musculus [19] = test: Acute toxicity in CD1 mouse assessed as WBC counts at 80 mg/kg, ip after 7 days; type: organism-based; design: dose 80 mg/kg, route intraperitoneal; conditions: in vivo, 168 h
Rattus norvegicus [20] = test: Toxicity in Lewis rat assessed as WBC counts at 40 mg/kg, iv after 7 days; type: organism-based; design: dose 40 mg/kg, route intravenous; conditions: in vivo, 168 h
Mus musculus [21] = test: Acute toxicity in CD1 mouse assessed as WBC counts at 40 mg/kg, ip after 7 days; type: organism-based; design: dose 40 mg/kg, route intraperitoneal; conditions: in vivo, 168 h
Mus musculus [22] = test: Acute toxicity in CD1 mouse assessed as myeloid or lymphoid hyperplasia in bone marrow at 80 mg/kg, ip after 7 days; type: organism-based; design: dose 80 mg/kg, route intraperitoneal; conditions: in vivo, 168 h
Mus musculus [23] = test: Acute toxicity in CD1 mouse assessed as absolute neutrophil counts at 20 mg/kg, ip after 7 days; type: organism-based; design: dose 20 mg/kg, route intraperitoneal; conditions: in vivo, 168 h
Mus musculus [24] = test: Toxicity in ip dosed CD1 mouse; type: organism-based; conditions: in vivo
[25] = target: Insulin-like growth factor 1 receptor (Homo sapiens, UniProt P08069); test: Inhibition of IGF1R
Mus musculus [26] = test: Subacute toxicity in CD1 mouse assessed as WBC counts at 80 mg/kg, ip after 30 days; type: organism-based; design: dose 80 mg/kg, route intraperitoneal; conditions: in vivo, 720 h
Rattus norvegicus [27] = test: Toxicity in Lewis rat assessed as myeloid or lymphoid hyperplasia in bone marrow at 80 mg/kg, iV after 7 days; type: organism-based; design: dose 80 mg/kg, route intravenous; conditions: in vivo, 168 h
[28] = target: Tyrosine-protein kinase Yes (Homo sapiens, UniProt P07947); test: Inhibition of YES kinase
Sequence of Tyrosine-protein kinase Yes (P07947 whole entry): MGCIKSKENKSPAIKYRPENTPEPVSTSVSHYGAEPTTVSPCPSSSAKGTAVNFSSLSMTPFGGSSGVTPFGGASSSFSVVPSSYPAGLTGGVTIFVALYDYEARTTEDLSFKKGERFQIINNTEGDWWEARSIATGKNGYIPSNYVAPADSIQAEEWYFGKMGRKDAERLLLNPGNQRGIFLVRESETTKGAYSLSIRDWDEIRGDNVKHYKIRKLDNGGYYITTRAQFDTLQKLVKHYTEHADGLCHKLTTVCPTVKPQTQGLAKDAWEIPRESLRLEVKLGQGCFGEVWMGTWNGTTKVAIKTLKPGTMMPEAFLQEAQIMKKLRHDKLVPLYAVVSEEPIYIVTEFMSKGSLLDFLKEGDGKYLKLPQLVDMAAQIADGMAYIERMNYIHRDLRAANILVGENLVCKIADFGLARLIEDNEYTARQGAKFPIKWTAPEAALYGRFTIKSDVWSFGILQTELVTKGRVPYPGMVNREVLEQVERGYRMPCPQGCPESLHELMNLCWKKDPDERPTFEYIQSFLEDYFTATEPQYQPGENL

Rattus norvegicus [29] = test: Effect on non-proliferating tissue in iv dosed Lewis rat assessed as toxic lesions in lung on day 7; type: ADME, organism-based; conditions: in vivo
Mus musculus [30] = test: Subacute toxicity in CD1 mouse assessed as absolute lymphocyte counts at 10 mg/kg, ip after 30 days; type: organism-based; design: dose 10 mg/kg, route intraperitoneal; conditions: in vivo, 720 h
[31] = target: Cyclin-dependent kinase 2 (Homo sapiens, UniProt P24941); test: Inhibition of CDK2
Rattus norvegicus [32] = test: Toxicity in Lewis rat assessed as absolute neutrophil counts at 20 mg/kg, iv after 7 days; type: organism-based; design: dose 20 mg/kg, route intravenous; conditions: in vivo, 168 h
Rattus norvegicus [33] = test: Toxicity in Lewis rat assessed as WBC counts at 20 mg/kg, iv after 7 days; type: organism-based; design: dose 20 mg/kg, route intravenous; conditions: in vivo, 168 h
[34] = target: Cyclin-dependent kinase 1 (Homo sapiens, UniProt P06493); test: Inhibition of CDK1
Sequence of Cyclin-dependent kinase 1 (P06493 whole entry): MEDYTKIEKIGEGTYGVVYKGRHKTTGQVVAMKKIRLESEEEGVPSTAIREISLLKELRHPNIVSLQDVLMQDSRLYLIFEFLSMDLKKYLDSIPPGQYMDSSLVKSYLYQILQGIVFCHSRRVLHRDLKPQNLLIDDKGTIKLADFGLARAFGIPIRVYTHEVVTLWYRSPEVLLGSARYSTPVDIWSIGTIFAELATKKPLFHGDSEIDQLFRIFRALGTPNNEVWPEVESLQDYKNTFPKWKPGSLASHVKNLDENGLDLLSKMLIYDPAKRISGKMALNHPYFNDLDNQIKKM

Mus musculus [35] = test: Subacute toxicity in CD1 mouse assessed as absolute lymphocyte counts at 80 mg/kg, ip after 30 days; type: organism-based; design: dose 80 mg/kg, route intraperitoneal; conditions: in vivo, 720 h
Mus musculus [36] = test: Acute toxicity in CD1 mouse assessed as WBC counts at 10 mg/kg, ip after 7 days; type: organism-based; design: dose 10 mg/kg, route intraperitoneal; conditions: in vivo, 168 h
[37] = target: Protein-tyrosine kinase 6 (Homo sapiens, UniProt Q13882); test: Inhibition of BRK
Sequence of Protein-tyrosine kinase 6 (Q13882 whole entry, the tested form may be a part): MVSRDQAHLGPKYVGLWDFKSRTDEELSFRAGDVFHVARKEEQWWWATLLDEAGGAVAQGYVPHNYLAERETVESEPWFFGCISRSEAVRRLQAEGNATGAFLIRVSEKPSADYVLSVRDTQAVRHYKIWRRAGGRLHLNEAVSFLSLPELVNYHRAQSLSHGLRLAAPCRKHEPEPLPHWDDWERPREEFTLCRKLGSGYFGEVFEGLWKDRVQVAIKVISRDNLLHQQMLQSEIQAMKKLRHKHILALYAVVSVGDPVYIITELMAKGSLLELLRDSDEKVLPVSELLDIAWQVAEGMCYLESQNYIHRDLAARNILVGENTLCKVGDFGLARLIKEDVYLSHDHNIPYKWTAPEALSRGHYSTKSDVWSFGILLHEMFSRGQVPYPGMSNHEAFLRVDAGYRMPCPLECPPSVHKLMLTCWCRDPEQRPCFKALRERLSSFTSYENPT

Danio rerio [38] = organism: Danio rerio; test: Effect on cell division blockade in zebrafish egg assessed as cell fusion and lysis at 500 uM after 60 mins; type: functional, organism-based
[39] = target: Cytoplasmic tyrosine-protein kinase BMX (Homo sapiens, UniProt P51813); test: Inhibition of BMX kinase
Sequence of Cytoplasmic tyrosine-protein kinase BMX (P51813 whole entry): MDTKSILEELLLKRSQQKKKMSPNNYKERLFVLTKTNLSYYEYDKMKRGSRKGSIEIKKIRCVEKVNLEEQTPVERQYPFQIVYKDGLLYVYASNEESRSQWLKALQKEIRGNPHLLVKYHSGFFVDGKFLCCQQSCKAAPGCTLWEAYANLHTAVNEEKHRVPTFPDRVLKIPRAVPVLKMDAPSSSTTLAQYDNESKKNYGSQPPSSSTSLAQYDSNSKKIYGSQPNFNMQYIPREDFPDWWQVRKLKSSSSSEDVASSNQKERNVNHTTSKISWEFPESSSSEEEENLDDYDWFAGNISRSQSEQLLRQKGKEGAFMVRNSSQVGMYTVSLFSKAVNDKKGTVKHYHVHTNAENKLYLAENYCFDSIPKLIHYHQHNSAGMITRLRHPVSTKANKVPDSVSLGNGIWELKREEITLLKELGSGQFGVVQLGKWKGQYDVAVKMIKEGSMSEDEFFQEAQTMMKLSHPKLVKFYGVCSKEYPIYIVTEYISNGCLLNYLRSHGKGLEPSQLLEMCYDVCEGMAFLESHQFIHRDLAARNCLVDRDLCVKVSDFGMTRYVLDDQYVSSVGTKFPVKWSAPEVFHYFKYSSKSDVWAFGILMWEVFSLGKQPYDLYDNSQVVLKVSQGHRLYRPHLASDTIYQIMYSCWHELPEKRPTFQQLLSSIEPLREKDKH

[40] = target: T1, Serine/threonine-protein kinase PLK3; test: Inhibition of human PLK3
Rattus norvegicus [41] = test: Effect on non-proliferating tissue in iv dosed Lewis rat assessed as toxic lesions in kidney on day 7; type: ADME, organism-based; conditions: in vivo
U-373MG ATCC = test: Induction of aberrant monopolar and multipolar spindle formation in human U373 cells at 100 uM; type: functional, cell-based
Mus musculus [42] = test: Subacute toxicity in CD1 mouse assessed as absolute neutrophil counts at 10 mg/kg, ip after 30 days; type: organism-based; design: dose 10 mg/kg, route intraperitoneal; conditions: in vivo, 720 h
[43] = target: T1, Serine/threonine-protein kinase PLK3; test: Inhibition of human PLK3 in presence of 25 uM ATP
Mus musculus [44] = test: Acute toxicity in CD1 mouse assessed as absolute lymphocyte counts at 20 mg/kg, ip after 7 days; type: organism-based; design: dose 20 mg/kg, route intraperitoneal; conditions: in vivo, 168 h
[45] = target: Phosphatidylinositol 4,5-bisphosphate 3-kinase catalytic subunit gamma isoform (Homo sapiens, UniProt P48736); test: Inhibition of PI3Kgamma
Mus musculus [46] = test: Effect on non-proliferating tissue in po dosed BALB/c mouse assessed as toxic lesions in kidney; type: ADME, organism-based; conditions: in vivo
[47] = target: Tyrosine-protein kinase ABL1 (Homo sapiens, UniProt P00519); test: Inhibition of ABL kinase
Mus musculus [48] = test: Effect on non-proliferating tissue in po dosed BALB/c mouse assessed as toxic lesions in myocardium; type: ADME, organism-based; conditions: in vivo
[49] = target: T1, Serine/threonine-protein kinase PLK3; test: Inhibition of human PLK3 in presence of 75 uM ATP
[50] = target: Serine/threonine-protein kinase Chk1 (Homo sapiens, UniProt O14757); test: Inhibition of CHK1
Mus musculus [51] = test: Effect on non-proliferating tissue in po dosed BALB/c mouse assessed as toxic lesions in brain; type: ADME, organism-based; conditions: in vivo
Mus musculus [52] = test: Anti-breast cancer activity in ip dosed MMTV/Neu transgenic mouse assessed as tumor progression delay; type: functional, organism-based
[53] = target: Inhibitor of NF-kappa-B kinase (IKK) (Homo sapiens, UniProt O14920+O15111+Q9Y6K9); test: Inhibition of IKK; type: protein-complex assay

C/C(O)=C(\C#N)C(=O)Nc1cc(Br)ccc1Br
IC50 [1]: > 500 µM | Activity (Rattus norvegicus [2]): 11.7 10^9/L | Activity (Rattus norvegicus [3]): 1.8 10^9/L | IC50 [4]: > 500 µM | Activity (Mus musculus [5]): 6.2 10^9/L | IC50 [6]: > 500 µM | Activity (Mus musculus [7]): 1.6 10^9/L | Activity (Rattus norvegicus [8]): Non-toxic | IC50 [9]: > 500 µM | Activity (Mus musculus [10]): 5.4 10^9/L | Activity (Rattus norvegicus [11]): Non-toxic | Activity (Mus musculus [12]): Non-toxic | IC50 [13]: 125 µM | Activity (Mus musculus [14]): Non-toxic | Activity (Mus musculus [15]): 1.3 10^9/L | IC50 [16]: 79 µM | Activity (Rattus norvegicus [17]): 9.8 10^9/L | Activity (PTK1): Active | Activity (Danio rerio [18]): Active | Activity (Mus musculus [19]): 6.6 10^9/L | Activity (Rattus norvegicus [20]): 12.9 10^9/L | Activity (Mus musculus [21]): 7 10^9/L | Activity (Mus musculus [22]): Non-toxic | Activity (Mus musculus [23]): 1.4 10^9/L | LD10 (Mus musculus [24]): > 80 mg/kg | IC50 [25]: > 500 µM | Activity (Mus musculus [26]): 6.1 10^9/L | Activity (Rattus norvegicus [27]): Non-toxic | IC50 [28]: > 500 µM | Activity (Rattus norvegicus [29]): Non-toxic | Activity (Mus musculus [30]): 4.4 10^9/L | IC50 [31]: > 500 µM | Activity (Rattus norvegicus [32]): 1.6 10^9/L | Activity (Rattus norvegicus [33]): 11.7 10^9/L | IC50 [34]: > 500 µM | Activity (Mus musculus [35]): 4.3 10^9/L | Activity (Mus musculus [36]): 7 10^9/L | IC50 [37]: 267 µM | Activity (Danio rerio [38]): Active | IC50 [39]: 281 µM | IC50 [40]: 61 µM | Activity (Rattus norvegicus [41]): Non-toxic | Activity (U-373MG ATCC): Active | Activity (Mus musculus [42]): 1.4 10^9/L | IC50 [43]: 61 µM | Activity (Mus musculus [44]): 5.8 10^9/L | IC50 [45]: > 500 µM | Activity (Mus musculus [46]): Non-toxic | IC50 [47]: > 500 µM | Activity (Mus musculus [48]): Non-toxic | IC50 [49]: 120 µM | IC50 [50]: > 500 µM | Activity (Mus musculus [51]): Non-toxic | Activity (Mus musculus [52]): Dose-dependent effect | IC50 [53]: > 500 µM
